Reference: US20240109873A1, “ANTAGONISTS OF THE MUSCARINIC ACETYLCHOLINE RECEPTOR M4” (Vanderbilt University, priority 2020, published 2024)

Assays:
[1] = biological target: T1, human mAChR M4 (Homo sapiens, UniProt P08173); experiment: mAChR M4 cell-based functional assay (calcium flux, antagonism of EC80 acetylcholine response, M4/Gqi5/CHO-K1 cells); details: for remaining activity at 30 µM: CHO-K1, % ACh maximum at 30 μM, read-out: Human M4 Emin; for IC50: decrease of the response elicited by an EC80 concentration of acetylcholine, CHO-K1 cells, Gqi5
T1 construct: expressed in transfected cells; host or cells: CHO-K1 (ATCC), co-transfected with chimeric G protein Gqi5
T1 sequence (P08173 1-479): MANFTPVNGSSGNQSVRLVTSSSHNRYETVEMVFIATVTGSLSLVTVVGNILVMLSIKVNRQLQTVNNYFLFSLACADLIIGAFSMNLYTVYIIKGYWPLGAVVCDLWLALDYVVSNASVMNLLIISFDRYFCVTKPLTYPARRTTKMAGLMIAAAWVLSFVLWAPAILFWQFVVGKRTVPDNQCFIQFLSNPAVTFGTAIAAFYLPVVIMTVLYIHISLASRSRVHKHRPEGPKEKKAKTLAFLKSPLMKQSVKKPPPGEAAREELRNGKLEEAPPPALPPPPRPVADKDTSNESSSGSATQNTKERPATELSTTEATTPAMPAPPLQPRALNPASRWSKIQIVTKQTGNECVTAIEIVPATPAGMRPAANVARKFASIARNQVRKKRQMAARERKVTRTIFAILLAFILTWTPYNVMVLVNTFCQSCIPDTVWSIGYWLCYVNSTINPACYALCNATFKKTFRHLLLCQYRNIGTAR
Method in brief: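 CHO-K1 cells stably expressing human M4 with chimeric Gqi5, loaded with Fluo-4 AM; calcium flux read on FDSS. Compounds (10-point, 1:3 curves) added first, then EC20 acetylcholine at 143 s and EC80 at 268 s. IC50 from decrease of EC80 acetylcholine response, four-parameter logistic fit.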

[2] = test system: mice; experiment: haloperidol-induced catalepsy, a model of parkinsonian motor disability; assay type: in vivo
Excerpt: Furthermore, haloperidol-induced catalepsy, a model of parkinsonian motor disability, is reduced in M4 knockout mice as compared to wild-type controls. […] The reversal by scopolamine was uncommonly robust and more pronounced than we observe with agents targeting a number of other targets being evaluated for potential antiparkinsonian effects, including metabotropic glutamate (mGlu) receptors mGlu4 or mGlu5, A2A adenosine receptors, and NMDA receptors. […] Taken together with the extensive studies of M4 modulation of basal ganglia and motor function, these studies provide compelling evidence that M4 is the dominant mAChR subtype involved in the antiparkinsonian effects of non-selective mAChR antagonists and provide support for discovery and development of selective M4 antagonists for treatment of neurodegenerative disease such as PD, dystonia, tardive dyskinesia and other movement disorders.

## [2H]C([2H])(C1CCOCC1)N1C[C@H]2C[C@H](Nc3ccc(-c4cccnc4C(F)(F)F)nc3)C[C@H]2C1 [Compound 41, (3aR,5s,6aS)-2-((tetrahydro-2H-pyran-4-yl)methyl-d2)-N-(2′-(trifluoromethyl)-[2,3′-bipyridin]-5-yl)octahydrocyclopenta[c]pyrrol-5-amine]
[1]
  remaining activity at 30 µM: 2%
  IC50: 8.7 nM

## [2H]C([2H])(CC1CCOCC1)N1C[C@H]2C[C@H](Nc3ccc(-c4cccnc4C(F)(F)F)nn3)C[C@H]2C1 [Compound 42, (3aR,5s,6aS)-2-(2-(tetrahydro-2H-pyran-4-yl)ethyl-1,1-d2)-N-(6-(2-(trifluoromethyl)pyridin-3-yl)pyridazin-3-yl)octahydrocyclopenta[c]pyrrol-5-amine]
[1]
  remaining activity at 30 µM: 2%
  IC50: 1.3 nM

## [2H]C([2H])(C1CCOC(C)(C)C1)N1C[C@H]2C[C@H](Nc3ccc(-c4cccnc4C(F)(F)F)nn3)C[C@H]2C1 (stereo partly drawn) [Compound 43, (3aR,5s,6aS)-2-((2,2-dimethyltetrahydro-2H-pyran-4-yl)methyl-d2)-N-(6-(2-(trifluoromethyl)pyridin-3-yl)pyridazin-3-yl)octahydrocyclopenta[c]pyrrol-5-amine]
[1]
  remaining activity at 30 µM: 2%
  IC50: 2.6 nM

## [2H]C1([2H])CC(C([2H])([2H])N2C[C@H]3C[C@H](Nc4ccc(-c5cccnc5C(F)(F)F)nn4)C[C@H]3C2)CC([2H])([2H])O1 [Compound 44, (3aR,5s,6aS)-2-((tetrahydro-2H-pyran-4-yl-2,2,6,6-d4)methyl-d2)-N-(6-(2-(trifluoromethyl)pyridin-3-yl)pyridazin-3-yl)octahydrocyclopenta[c]pyrrol-5-amine]
[1]
  remaining activity at 30 µM: 2%
  IC50: 1.4 nM

## [2H]C([2H])(C1CC(C)(C)OC(C)(C)C1)N1C[C@H]2C[C@H](Nc3ccc(-c4cccnc4C(F)(F)F)nn3)C[C@H]2C1 [Compound 45, (3aR,5s,6aS)-2-((2,2,6,6-tetramethyltetrahydro-2H-pyran-4-yl)methyl-d2)-N-(6-(2-(trifluoromethyl)pyridin-3-yl)pyridazin-3-yl)octahydrocyclopenta[c]pyrrol-5-amine]
[1]
  remaining activity at 30 µM: 2%
  IC50: 14.7 nM

## [2H]C([2H])([C@H]1CCCOC1)N1C[C@H]2C[C@H](Nc3ccc(-c4cccnc4C(F)(F)F)nn3)C[C@H]2C1 [Compound 46, (3aR,5s,6aS)-2-(((R)-tetrahydro-2H-pyran-3-yl)methyl-d2)-N-(6-(2-(trifluoromethyl)pyridin-3-yl)pyridazin-3-yl)octahydrocyclopenta[c]pyrrol-5-amine]
[1]
  remaining activity at 30 µM: 2%
  IC50: 21.7 nM

## [2H]C([2H])([C@@H]1CCCOC1)N1C[C@H]2C[C@H](Nc3ccc(-c4cccnc4C(F)(F)F)nn3)C[C@H]2C1 [Compound 47, (3aR,5s,6aS)-2-(((S)-tetrahydro-2H-pyran-3-yl)methyl-d2)-N-(6-(2-(trifluoromethyl)pyridin-3-yl)pyridazin-3-yl)octahydrocyclopenta[c]pyrrol-5-amine]
[1]
  remaining activity at 30 µM: 2%
  IC50: 4 nM

## [2H]C([2H])([C@@H]1CCCCO1)N1C[C@H]2C[C@H](Nc3ccc(-c4cccnc4C(F)(F)F)nn3)C[C@H]2C1 [Compound 48, (3aR,5s,6aS)-2-(((S)-tetrahydro-2H-pyran-2-yl)methyl-d2)-N-(6-(2-(trifluoromethyl)pyridin-3-yl)pyridazin-3-yl)octahydrocyclopenta[c]pyrrol-5-amine]
[1]
  remaining activity at 30 µM: 2%
  IC50: 0.87 nM

## [2H]C([2H])([C@H]1CCCCO1)N1C[C@H]2C[C@H](Nc3ccc(-c4cccnc4C(F)(F)F)nn3)C[C@H]2C1 [Compound 49, (3aR,5s,6aS)-2-(((R)-tetrahydro-2H-pyran-2-yl)methyl-d2)-N-(6-(2-(trifluoromethyl)pyridin-3-yl)pyridazin-3-yl)octahydrocyclopenta[c]pyrrol-5-amine]
[1]
  remaining activity at 30 µM: 2%
  IC50: 0.55 nM

## [2H]C([2H])(C1CCOCC1)N1C[C@H]2C[C@H](Nc3nnc(-c4cccnc4C(F)(F)F)cc3C)C[C@H]2C1 [Compound 50, (3aR,5s,6aS)-N-(4-methyl-6-(2-(trifluoromethyl)pyridin-3-yl)pyridazin-3-yl)-2-((tetrahydro-2H-pyran-4-yl)methyl-d2)octahydrocyclopenta[c]pyrrol-5-amine]
[1]
  remaining activity at 30 µM: 1%
  IC50: 0.88 nM

## [2H]C([2H])([C@H]1COCCO1)N1C[C@H]2C[C@H](Nc3ccc(-c4cccnc4C(F)(F)F)nn3)C[C@H]2C1 [Compound 51, (3aR,5s,6aS)-2-(((S)-1,4-dioxan-2-yl)methyl-d2)-N-(6-(2-(trifluoromethyl)pyridin-3-yl)pyridazin-3-yl)octahydrocyclopenta[c]pyrrol-5-amine]
[1]
  remaining activity at 30 µM: 2%
  IC50: 1.4 nM

## [2H]C([2H])(C1CCCOCC1)N1C[C@H]2C[C@H](Nc3ccc(-c4cccnc4C(F)(F)F)nn3)C[C@H]2C1 (stereo partly drawn) [Compound 52, (3aR,5s,6aS)-2-(oxepan-4-ylmethyl-d2)-N-(6-(2-(trifluoromethyl)pyridin-3-yl)pyridazin-3-yl)octahydrocyclopenta[c]pyrrol-5-amine]
[1]
  remaining activity at 30 µM: 2%
  IC50: 0.58 nM

## [2H]C([2H])(C1CCOCC1(C)C)N1C[C@H]2C[C@H](Nc3ccc(-c4cccnc4C(F)(F)F)nn3)C[C@H]2C1 (stereo partly drawn) [Compound 53, (3aR,5s,6aS)-2-((3,3-dimethyltetrahydro-2H-pyran-4-yl)methyl-d2)-N-(6-(2-(trifluoromethyl)pyridin-3-yl)pyridazin-3-yl)octahydrocyclopenta[c]pyrrol-5-amine]
[1]
  remaining activity at 30 µM: 3%
  IC50: 2.9 nM

## [2H]C([2H])(C1CC2(CC2)CO1)N1C[C@H]2C[C@H](Nc3ccc(-c4cccnc4C(F)(F)F)nn3)C[C@H]2C1 (stereo partly drawn) [Compound 54, (3aR,Ss,6aS)-2-((5-oxaspiro[2.4]heptan-6-yl)methyl-d2)-N-(6-(2-(trifluoromethyl)pyridin-3-yl)pyridazin-3-yl)octahydrocyclopenta[c]pyrrol-5-amine]
[1]
  remaining activity at 30 µM: 2%
  IC50: 0.69 nM

## [2H]C([2H])(N1C[C@H]2C[C@H](Nc3ccc(-c4cccnc4C(F)(F)F)nn3)C[C@H]2C1)C12COC(C)(C1)C2 [Compound 55, (3aR,5s,6aS)-2-((1-methyl-2-oxabicyclo[2.1.1]hexan-4-yl)methyl-d2)-N-(6-(2-(trifluoromethyl)pyridin-3-yl)pyridazin-3-yl)octahydrocyclopenta[c]pyrrol-5-amine]
[1]
  remaining activity at 30 µM: 3%
  IC50: 5.5 nM

## [2H]C([2H])(C1CCOC2(CCC2)C1)N1C[C@H]2C[C@H](Nc3ccc(-c4cccnc4C(F)(F)F)nn3)C[C@H]2C1 (stereo partly drawn) [Compound 60, (3aR,5s,6aS)-2-((5-oxaspiro[3.5]nonan-8-yl)methyl-d2)-N-(6-(2-(trifluoromethyl)pyridin-3-yl)pyridazin-3-yl)octahydrocyclopenta[c]pyrrol-5-amine]
[1]
  remaining activity at 30 µM: 4%
  IC50: 1.4 nM

## CN1[C@@H]2C[C@@H](OC(=O)[C@H](CO)c3ccccc3)C[C@H]1[C@@H]1O[C@@H]12 [scopolamine]
[2]; M4 KO mice
  reduction of catalepsy induced by haloperidol: ineffective in reducing catalepsy
[2]; WT mice
  reversal of catalepsy induced by haloperidol: completely reversed
